From patent publication US10875847B2, “Aminopyrazoles as selective janus kinase inhibitors” (Intervet Inc., priority 2016, dated 2020)
Where two headings read alike, the source gives them in different places. One block for each compound: values may come before it.

Experiments:
[1] = system: Interleukin 6 (IL6)—JAK1/JAK2-STAT4 Pathway; assay: IL6 CellSensor cell pathway engagement assay (SIE-bla ME-180 cells); settings: for IC50: Homo sapiens; for EPO/IL-6: Table 3, comparative examples
Description: Inhibition of the activity of JAK1 and JAK2 kinases in intact cells was quantified in antagonist mode using CellSensor® transcriptional reporter technology (Life Technologies/ThermoFisher: https://www.thermofisher.com/us/en/home/industrial/pharma-biopharma/drug-discovery-development/target-and-lead-identification-and-validation/pathway-biology/cellular-pathway-analysis/cellsensor-cell-lines.html), in two independent cell lines engineered to detect IL4, IL6 and EPO signaling. In brief, CellSensor® cell lines (see details below for each assay) carrying a stably integrated β-Lactamase reporter gene under control of specific cis-regulatory STAT elements responsive to the pathway being monitored were pre-treated with test compounds serially diluted in DMSO (see preparation and dosing of compounds and agonist cytokines section). […] Incubation with compounds, cytokines and LiveBLAzer™ were carried out at 37° C. in a tissue culture incubator maintained at 90% humidity and 5% CO2.
Interleukin 6 (IL6)—JAK1/JAK2-STAT4 Pathway:
CellSensor™ SIE-bla ME-180 cells carrying a stably integrated β-Lactamase reporter gene under control of the Sis-Inducible Element (SIE).
Each CellSensor® cell line was subsequently plated as per supplier's instructions (30,000 cells in 32 μL/well) and mixed with compound. Following a 60 minute incubation cells were subsequently stimulated by addition of 8 μL of cognate cytokine (EC80 dose of IL6 and EPO) and incubated for an additional 3 hours, before adding LiveBLAzer™-FRET B/G substrate.

[2] = 6-week pilot target animal safety study; settings: for NOAEL at 6 weeks: dog, in vivo, po
Procedure: The drug was administered orally, as a compressed tablet, twice per day for 6 weeks to dogs at 1, 3, and 5 times the maximum exposure dose of 0.5 mg/kg, or once per day for 6 weeks to dogs at 5 times the maximum exposure dose of 1 mg/kg.

[3] = Dog pharmacokinetics after IV administration; settings: in vivo, 0.25 mg/kg I.V.
Procedure: Examples of the instant invention were evaluated in JAK1, JAK2, and JAK3 in vitro binding assays, and IL-6 and EPO cell pathway engagement assays, as described above. Table 1 tabulates the IC50 values of the instant invention in the JAK1, JAK2, and JAK3 in the in vitro binding assays, and the IL-6 and EPO cell pathway engagement assays, as well as the ratio of the JAK2/JAK1 IC50s, JAK3/JAK1 IC50s, and the EPO/IL-6 IC50s. Table 2 tabulates the pharmacokinetic parameters of the instant invention in the dog after IV administration.

JAK3 = JAK3 (Homo sapiens (Human), UniProt P52333); assay: Jak biochemical HTRF enzyme assay, JAK3; settings: Table 1
Chain of JAK3 (P52333 822-1111): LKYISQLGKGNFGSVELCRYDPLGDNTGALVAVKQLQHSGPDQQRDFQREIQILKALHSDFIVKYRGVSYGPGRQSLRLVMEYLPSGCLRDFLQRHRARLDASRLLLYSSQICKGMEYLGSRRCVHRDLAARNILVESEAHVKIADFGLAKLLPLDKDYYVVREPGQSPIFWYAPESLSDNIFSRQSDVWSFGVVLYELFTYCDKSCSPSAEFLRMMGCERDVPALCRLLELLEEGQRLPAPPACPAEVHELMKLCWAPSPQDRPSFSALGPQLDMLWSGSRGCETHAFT
Description: Jak Biochemical HTRF Enzyme Assay Protocol
The ability of compounds to inhibit the catalytic activity of JAK1, JAK2, JAK3, and TYK2 was quantified using a recombinant purified GST-tagged catalytic domain for each enzyme (InVitrogen/Life Technologies/ThermoFisher, catalogue #s: JAK1, #M4290; […]) in an HTRF format biochemical assay. […] Subsequent reagent additions employed an Agilent Bravo automated liquid handler. […] After normalization to untreated controls, the percent inhibition of the HTRF signal at each compound concentration was calculated. The plot of percent inhibition versus the log value of compound concentration was done as described above for cell assays to calculate IC50 values.

[4] = IL-31 induced itching model; assay type: in vivo, Beagle dogs; settings: dog, in vivo, 1 mg/kg body weight; Beagle dogs, dosing before cIL-31 challenge; read-out: approximate Tmax
cIL-31 induced pruritus = assay: IL-31 induced itching model; assay type: in vivo, Beagle dogs
[5] = system: Erythropoietin (EPO)—JAK2-STAT5 Pathway; assay: EPO CellSensor cell pathway engagement assay (irf1-bla TF-1 cells); assay type: cell-based; settings: Homo sapiens, Table 1
Procedure: In brief, CellSensor® cell lines (see details below for each assay) carrying a stably integrated β-Lactamase reporter gene under control of specific cis-regulatory STAT elements responsive to the pathway being monitored were pre-treated with test compounds serially diluted in DMSO (see preparation and dosing of compounds and agonist cytokines section). […] Incubation with compounds, cytokines and LiveBLAzer™ were carried out at 37° C. in a tissue culture incubator maintained at 90% humidity and 5% CO2.
CellSensor irf1-bla TF-1 cells carry a stably integrated β-Lactamase reporter gene under control of the STAT5 Response Elements present in the Interferon Regulatory Factor I (IRF1) gene promoter.

JAK1 = JAK1 (Homo sapiens (Human), UniProt P23458); assay: Jak biochemical HTRF enzyme assay, JAK1
Chain of JAK1 (P23458 875-1153): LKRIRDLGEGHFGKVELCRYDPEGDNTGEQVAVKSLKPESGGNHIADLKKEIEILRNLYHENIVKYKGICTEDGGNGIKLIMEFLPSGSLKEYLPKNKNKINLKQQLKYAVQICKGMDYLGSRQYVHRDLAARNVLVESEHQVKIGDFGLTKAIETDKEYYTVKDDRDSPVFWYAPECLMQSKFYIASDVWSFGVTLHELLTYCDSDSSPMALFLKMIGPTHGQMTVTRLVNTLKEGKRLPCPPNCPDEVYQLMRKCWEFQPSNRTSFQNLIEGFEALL

[6] = dogs, higher doses; cited from earlier work
[7] = dogs with allergic or atopic dermatitis; cited from earlier work
[8] = ME-180, read-out: IL-6 IC50 (nM)
[9] = dogs, oral, 6 weeks, up to 5 times maximum exposure dose
[10] = 0.5 mg/kg body weight, second study

Compound: COc1cc(Nc2nn([C@H]3COCC[C@@H]3C#N)cc2C(N)=O)cc(F)n1 (single isomer, unassigned) [Compound 1, 1-((3R,4S) or (3S,4R)-4-cyanotetrahydro-2H-pyran-3-yl)-3-((2-fluoro-6-methoxypyridin-4-yl)amino)-1H-pyrazole-4-carboxamide]
- IC50 [1, 8]: 41.8 nM
- NOAEL at 6 weeks [2]: 2.5 mg/kg
- NOAEL at 6 weeks ([2]; 5 mg/kg once per day): 5 mg/kg/day
- test article related effects in clinical observations, fecal observations, body weight, food consumption, physical examination, blood pressure, ophthalmology, cardiology [2, 9]: No test article related effects were observed
- test article related effects in postmortem evaluations (organ weights, macroscopic and microscopic findings) [2, 9]: No test article related effects were observed
- AUC [3]: 1290 nM·h
- clearance [3]: 0.565 L/h/kg
- half-life [3]: 4.38 h
- Vd ([3]; read-out: Vdss): 1.95 L/kg
- IC50 (JAK3): 1.13 µM
- Tmax [4]: ~2 h
- suppression of cIL-31 induced pruritus (cIL-31 induced pruritus; 0.05 mg/kg body weight (sentence prints 0.5), second study): not
- suppression of cIL-31 induced pruritus (cIL-31 induced pruritus; 0.1 mg/kg body weight, second study): not
- magnitude of effect compared with Apoquel (cIL-31 induced pruritus; [10]): similar
- suppression of cIL-31 induced pruritus (cIL-31 induced pruritus; [10]): significantly suppressed
- suppression of cIL-31 induced pruritus (cIL-31 induced pruritus; 1 mg/kg body weight, dosed 2 h prior to cIL-31 challenge, first study): significantly suppressed
- magnitude of pruritus suppression compared with Apoquel (cIL-31 induced pruritus; 1 mg/kg body weight, first study): similar
- IC50 [5]: 0.46 µM
- IC50 (JAK1): 0.00043 µM

- IC50 (JAK1; Table 3, comparative examples): 0.00167 µM
Compound: CN(C)[C@H]1CC[C@H](n2cc(C(N)=O)c(Nc3ccc(Cl)cc3)n2)[C@@H](C#N)C1 (single isomer, unassigned) [Reference Compound A, 3-[(4-chlorophenyl)amino]-1-[(1S,2S,4S or 1R,2R,4R)-2-cyano-4-(dimethylamino)cyclohexyl]-1H-pyrazole-4-carboxamide]

Compound: CS(=O)(=O)c1ccc(Nc2nn([C@H]3CCCC[C@@H]3C#N)c3cc[nH]c(=O)c23)cc1 [B, (1S,2S)-2-(3-{[4-(methylsulfonyl)phenyl]amino}-4-oxo-4,5-dihydro-1H-pyrazolo[4,3-c]pyridin-1-yl)cyclohexanecarbonitrile]
- potency in IL6 CellSensor assay relative to EPO CellSensor assay ([1]; IL6 versus EPO assay): within two-three fold

- IC50 [1, 8]: 2440 nM
- IC50 (JAK3): > 1.25 µM
- IC50 [5]: 9.48 µM
- IC50 (JAK1; Table 1): 0.0177 µM
Compound: COc1cc(Nc2nn([C@@H]3COCC[C@H]3C#N)cc2C(N)=O)cc(F)n1 [Enantiomer of 1]

- IC50 ([1]; ME-180, read-out: IL-6 IP (nM)): 97 nM
- IC50 (JAK1; Table 3, comparative examples): 0.0003 µM
- JAK2/1 (JAK1; Table 3, comparative examples): 10x
Compound: N#CCC1(n2cc(-c3ncnc4[nH]ccc34)cn2)CN(C2CCN(C(=O)c3ccnc(C(F)(F)F)c3F)CC2)C1 [INCB39110]
- EPO/IL-6 [1]: 5x

Compound: N#CC[C@H](C1CCCC1)n1cc(-c2ncnc3[nH]ccc23)cn1 [JAKAFI]
- IC50 ([1]; ME-180, read-out: IL-6 IP (nM)): 40 nM
- EPO/IL-6 [1]: 0.2x
- JAK2/1 (JAK1): 0.7x

Compound: CNS(=O)(=O)C[C@H]1CC[C@H](N(C)c2ncnc3[nH]ccc23)CC1 [Oclacitinib]
- IC50 ([1]; ME-180, read-out: IL-6 IP (nM)): 230 nM
- EPO/IL-6 [1]: 2.4x
- effect on hematocrit, hemoglobin and reticulocyte counts [6]: reduction
- effect on pruritus and lesions [7]: rapid amelioration of pruritus and reduces lesions
- IC50 (JAK1; Table 3, comparative examples): 0.0034 µM
- JAK2/1 (JAK1; Table 3, comparative examples): 2.0x
